Data on seven compounds can be found in PMC6406258, “The ROMP: A Powerful Approach to Synthesize Novel pH-Sensitive Nanoparticles for Tumor Therapy” (Biomolecules, 2019).

Read-outs that look alike come from different tables or passages of the source.

The data set can be described thus: Hydrolysis of pro-drugs at biologically relevant pHs (half-lives). In kind it is physicochemical. The text has this:
The behaviors of the eight pro-drugs synthesized were then validated by hydrolysis at various biologically relevant pHs: 4.3, 5.0, 6.0 for the pHs that can be found in acidic vesicles at various maturation degrees, and at pH 7.3 for the physiological and neutral pH. As one can see, the R substituent on the phenyl group is highly important for the modulation of the kinetics of the release. In the case of the two hydroxamic acid pro-drugs, the best system appeared to be the di-p-toluyl one (R=Me), with a half-life of 10–20 h at the moderately acidic pH of lysosomes. Other solutions were too stable or rapidly hydrolyzed. In the case of the benzamide drug, the best system was the diphenyl one (R=H). When a group with an electron donating effect was present on the phenyl rings, the benzamide pro-drugs were decomposed very quickly in a time range that limit the accurateness of the kinetic measurements.
The synthesis of pro-drugs (Scheme 1), the determination of the hydrolysis rates of pro-drugs in mildly acidic pH [25, 26], the pro-drug-functionalized macromonomer-PEO-CI994 (17), the pro-drug-functionalized macro-monomer-PEO-SAHA (16), the pro-drug-functionalized macro-monomer-PEO-NODH (15), and the synthesis of the pro-drug functionalized nanoparticles (NPs) (Figure 1), and the biological tests are developed in the supporting information part.

The mark [1] stands for this setting: buffer, pH 4.3, read-out: Half-life (converted).
Setting [2] is: buffer, pH 7.3, read-out: Half-life (converted).
[3] abbreviates: buffer, pH 6.0, read-out: Half-life (converted).
The mark [4] stands for this setting: buffer, pH 5.0, read-out: Half-life (converted).

By half-life is commonly meant how long it takes for the measured level to halve. Take `C#CCOCCOCCOCCOCCn1cc(C(ONC(=O)CCCCCCC(=O)Nc2ccccc2)(c2ccccc2)c2ccccc2)nn1` [Compound 6a]: the half-life result reads like this: (pH 4.3, result in words) “Stable”; (pH 5.0, result in words) “Stable”; (pH 6.0, result in words) “Stable”; (pH 7.3, result in words) “Stable”.

Consider `C#CCOCCOCCOCCOCCn1cc(C(ONC(=O)CCCCCCC(=O)Nc2ccccc2)(c2ccc(C)cc2)c2ccc(C)cc2)nn1` [Compound 6b], for which the half-life was 20 h under setting [1], 96 h under setting [2] and 80 h under setting [3].

Turning to `C#CCOCCOCCOCCOCCn1cc(C(ONC(=O)CCCCCCC(=O)Nc2ccccc2)(c2ccc(OC)cc2)c2ccc(OC)cc2)nn1` [Compound 6c], the half-life was 0.5 h under setting [1], 0.567 h under setting [2], 1.33 h under setting [4] and 1.8 h under setting [3].

Take `C#CCOCCOCCOCCOCCn1cc(C(Nc2ccccc2NC(=O)c2ccc(NC(C)=O)cc2)(c2ccccc2)c2ccccc2)nn1` [Compound 7a]: the half-life under setting [4] is 6.67 h and the half-life under setting [3] was 48 h.

`C#CCOCCOCCOCCOCCn1cc(C(Nc2ccccc2NC(=O)c2ccc(NC(C)=O)cc2)(c2ccc(C)cc2)c2ccc(C)cc2)nn1` [Compound 7b]: the half-life is less than 0.0167 h under setting [1], 0.2 h under setting [4] and 0.167 h under setting [3].

As to `C#CCOCCOCCOCCOCCn1cc(C(Nc2ccccc2NC(=O)c2ccc(NC(C)=O)cc2)(c2ccc(OC)cc2)c2ccc(OC)cc2)nn1` [Compound 7c], the half-life under setting [1] was less than 0.0167 h, the half-life under setting [4] was less than 0.0833 h and the half-life under setting [3] was less than 0.0833 h.

Regarding `C#CCOCCOCCOCCOCCn1cc(C(ONC(=O)/C=C/C(C)=C/C2(C)Oc3cc(N(C)C)ccc3C2=O)(c2ccccc2)c2ccccc2)nn1` (stereo not shown) [Compound 8a], the half-life result is, setting by setting: (pH 4.3, result in words) “stable”; (pH 5.0, result in words) “stable”; (pH 7.3, result in words) “Stable”.
